Patent US11649475B2, “Dioxetane compounds and their use for the detection of microorganisms” (NEMIS Technologies AG, priority 2018, dated 2023)

Columns and labels:
[1] = tested on: Listeria monocytogenes ATCC 7644; assay: Luminescence of culture samples after addition of Compound IIIa; type: cell-based; conditions: L.m. 1, inoculation density 10^5 CFU/mL, 6 h cultivation, 10 μM
Protocol: (§1) Similar cell concentrations of all strains were inoculated in triplicate test tubes with M52 broth. In addition, further dilutions of L.m. 2 cells in sterile saline were inoculated in triplicate test tubes. Sterile saline was added to negative control tubes. […] Final concentration of Compound IIIa was 10 μM, final concentration of dimethyl sulfoxide was 1% v/v. Light emission was recorded with a plate reader equipped with a luminescence detection system. […] It was possible to detect 10^3 CFU/mL of Listeria monocytogenes after 6 h of incubation as indicated by a signal-to-noise ratio of 2 relative to sterile controls.

[2] = tested on: Listeria innocua (6a) ATCC 33090; assay: as above; type: cell-based; conditions: L.i., inoculation density 10^5 CFU/mL, 6 h cultivation, 10 μM
Protocol: as §1

[3] = tested on: Escherichia coli ATCC 25922; assay: as above; type: cell-based; conditions: E.c., inoculation density 10^5 CFU/mL, 6 h cultivation, 10 μM
Protocol: as §1

[4] = tested on: Listeria monocytogenes (4b) ATCC 19115; assay: as above; type: cell-based; conditions: 6 h cultivation, 10 μM; for Mean RLU (n = 3): 16-20 min after addition
Protocol: as §1

[5] = tested on: phosphatidylinositol-specific phospholipase C (PI-PLC); assay: Enzymatic assay of PI-PLC activity with Compound IIIa; type: biochemical; conditions: for RLU: PBS pH 7.4, 1% v/v DMSO
Protocol: Varying concentrations of phosphatidylinositol-specific phospholipase C (PI-PLC) were added and luminescence was recorded at room temperature (Table 4). Assays were performed in a white microtiter plate with 0.25 mL total liquid volume.

[6] = tested on: Salmonella Enteritidis RKI 05/07992; assay: Luminescence of culture samples after addition of Compound IIa; type: cell-based, Salmonella enterica ssp. enterica ser. Enteritidis; conditions: for Signal to noise ratio (to sterile) / Mean RLU (n = 3): 6 h cultivation, 10 μM; for Mean RLU (n = 3): 27-30 min after addition
Description: (§2) Citrobacter freundii ATCC 8090 (C.f., […] negative), Escherichia coli ATCC 25922 (E.c., […] negative), Salmonella Typhimurium (D) ATCC […]., Salmonella enterica ssp. I ser. Typhimurium, […] positive), Salmonella Enteritidis (D) ATCC […]. 1, Salmonella enterica ssp. enterica ser. Enteritidis, […] positive) and Salmonella Enteritidis RKI 05/[…]. 2, Salmonella enterica ssp. enterica ser. […] Similar cell concentrations of all strains were inoculated in triplicate test tubes with Nutrient Broth. […] Sterile saline was added to negative control tubes. […] Final concentration Compound IIa was 10 μM, final concentration of dimethyl sulfoxide was […]. Light emission was recorded with a plate reader equipped with a luminescence detection system.

[7] = tested on: Salmonella Enteritidis (D) ATCC 13076; assay: as above; type: cell-based, Salmonella enterica ssp. enterica ser. Enteritidis; conditions: S.E. 1, inoculation density 10^5 CFU/mL, 6 h cultivation, 10 μM
Description: as §2

[8] = tested on: Citrobacter freundii ATCC 8090; assay: as above; type: cell-based; conditions: C.f., inoculation density 10^5 CFU/mL, 6 h cultivation, 10 μM
Description: as §2

[9] = tested on: Escherichia coli ATCC 25922; assay: as above; type: cell-based; conditions: E.c., inoculation density 10^5 CFU/mL, 6 h cultivation, 10 μM
Description: as §2

[10] = tested on: Salmonella Enteritidis RKI 05/07992; assay: Limit of detection of Salmonella enterica, Compound IIa versus MUCAP; type: cell-based; conditions: Compound IIa 10 μM versus MUCAP 0.1 mM, PBS, 15% DMSO
Protocol: Salmonella Enteritidis RKI 05/07992 was cultivated in Nutrient Broth (5 g/I peptone, 5 g/l NaCl, 2 g/L yeast extract, 1 g/l beef extract, pH 7.4) for 20 h (37° C., 150 rpm) and then serially diluted in phosphate buffered saline. Cell suspensions were mixed 1:1 v/v with phosphate buffered saline containing dimethyl sulfoxide (final concentration in assay 15%) and either Compound IIa (final concentration 10 μM) or 4-Methylumbelliferyl caprylate (MUCAP, final concentration 0.1 mM). Assays were performed in microplates, total liquid volume was 0.2 mL. Light emission and fluorescence (excitation 360 nm, emission 455 nm) were recorded with a SpectraMax M5 (Molecular Devices, Sunnyvale, Calif., USA) plate reader. Cell concentration of undiluted culture was estimated from optical density (600 nm).

[11] = tested on: Salmonella Typhimurium (D) ATCC 14028; assay: Luminescence of culture samples after addition of Compound IIa; type: cell-based, Salmonella enterica ssp. I ser. Typhimurium; conditions: S.T., inoculation density 10^5 CFU/mL, 6 h cultivation, 10 μM
Description: as §2

pig liver esterase = assay: Enzymatic assay of pig liver esterase activity with Compound IIa; conditions: 62.5 μM, PBS pH 7.4, 10% v/v DMSO, 20 min measurement period
Protocol: The assay mix was pre-incubated for 20 min at room temperature, then 1:5 v/v of pig liver esterase solutions containing varying enzyme concentrations were added and luminescence was recorded for 20 min at room temperature with a SpectraMax M5 reader in luminescence mode. Assays were performed in a black microtiter plate with a total liquid volume of 0.25 mL.

glucose = assay: Detection of glucose in Escherichia coli culture supernatant with compound VIa and glucose oxidase; type: biochemical; conditions: 40 μM compound VIa in HEPES buffer pH 7.0, 1 mg/mL glucose oxidase, 20 min
Protocol: Cells were separated from culture supernatant by centrifugation (13'000×g, 2 min). […] A second negative control also contained 5 mM glucose, but no glucose oxidase. Culture supernatant with and without glucose (0.1 mL) was mixed in a white microtiter plate with 0.1 mL of HEPES buffer (100 mM, pH 7.0) containing 40 μM of compound VIa, reacting with hydrogen peroxide) and 1 mg/mL commercially available glucose oxidase from Aspergillus niger. […] Presence of glucose lead to continuously increasing luminescence when compound Via and glucose oxidase were also present.

[12] = tested on: methicillin-susceptible Staphylococcus aureus ATCC 29213 (MSSA); assay: Luminescence development in cultures with and without oxacillin, Compound IVa; type: cell-based; conditions: oxacillin 20 mg/L, 6 h, 10 μM compound IVa as indicator
Protocol: (§3) Methicillin-resistant Staphylococcus aureus ATCC 33592 (MRSA), a strain which is resistant to penicillin derivatives such as methicillin and oxacillin, and methicillin-susceptible Staphylococcus aureus ATCC 29213 (MSSA) were cultivated overnight at 37° C. in nutrient broth (5 g/L peptone, 5 g/L sodium chloride, 2 g/L yeast extract, 1 g/L meat extract, pH 7.4) and diluted in sterile saline. MRSA and MSSA strains were inoculated at approx. 10^6 CFU/mL in nutrient broth containing compound IVa at a final concentration of 10 μM. For each strain, one culture was supplemented with oxacillin (20 mg/L final concentration) and one culture was left without antibiotics. Tube cultures were incubated at 37° C. and 150 rpm. A sterile control (nutrient broth with 10 μM of compound IVa) was incubated in parallel. Luminescence of culture samples (0.2 mL in a white microtiter plate) was recorded at regular intervals for 6 h with a SpectraMax M5 plate reader (FIG. 4: Luminescence development in cultures of MRSA and MSSA in the presence and absence of the antibiotic oxacillin). […] Growing and non-growing cultures could be distinguished after 1 h of incubation.

[13] = tested on: Methicillin-resistant Staphylococcus aureus ATCC 33592 (MRSA); assay: as above; type: cell-based; conditions: oxacillin 20 mg/L, 6 h, 10 μM compound IVa as indicator
Protocol: as §3

[14] = L.m. 2, inoculation density 10^2 CFU/mL
[15] = L.m. 2, inoculation density 10^3 CFU/mL
[16] = L.m. 2, inoculation density 10^4 CFU/mL
[17] = L.m. 2, inoculation density 10^5 CFU/mL
[18] = S.E. 2, inoculation density 10^1 CFU/mL
[19] = S.E. 2, inoculation density 10^2 CFU/mL
[20] = S.E. 2, inoculation density 10^3 CFU/mL
[21] = S.E. 2, inoculation density 10^4 CFU/mL
[22] = S.E. 2, inoculation density 10^5 CFU/mL

COC(=O)/C=C/c1ccc(C2(OC)OOC23C2CC4CC(C2)CC3C4)c(Cl)c1OCc1ccc(OP(=O)(O)O[C@@H]2[C@H](O)[C@H](O)[C@@H](O)[C@H](O)[C@H]2O)cc1 (some centres unmarked) [Compound IIIa]
Signal to noise ratio (to sterile) [1]: 832
Mean RLU (n = 3) ([1]; 16-20 min after addition): 11913 RLU
Signal to noise ratio (to sterile) [2]: 2.3
Mean RLU (n = 3) ([2]; 16-20 min after addition): 33 RLU
Signal to noise ratio (to sterile) [3]: 0.5
Mean RLU (n = 3) ([3]; 16-20 min after addition): 7 RLU
Signal to noise ratio (to sterile) [4, 14]: 0.9
Mean RLU (n = 3) [4, 14]: 12 RLU
Signal to noise ratio (to sterile) [4, 15]: 2.2
Mean RLU (n = 3) [4, 15]: 31 RLU
Signal to noise ratio (to sterile) [4, 16]: 17
Mean RLU (n = 3) [4, 16]: 242 RLU
Signal to noise ratio (to sterile) [4, 17]: 716
Mean RLU (n = 3) [4, 17]: 10258 RLU
Signal to noise ratio ([5]; PI-PLC added 5 · 10^−1 U/mL): 862
RLU ([5]; PI-PLC added 5 · 10^−1 U/mL, 10 μM): 60265 RLU
Signal to noise ratio ([5]; PI-PLC added 5 · 10^−2 U/mL): 512
RLU ([5]; PI-PLC added 5 · 10^−2 U/mL, 10 μM): 35822 RLU
Signal to noise ratio ([5]; PI-PLC added 5 · 10^−3 U/mL): 148
RLU ([5]; PI-PLC added 5 · 10^−3 U/mL, 10 μM): 10369 RLU
Signal to noise ratio ([5]; PI-PLC added 5 · 10^−4 U/mL): 17
RLU ([5]; PI-PLC added 5 · 10^−4 U/mL, 10 μM): 1191 RLU

CCCCCCCC(=O)Oc1ccc(COc2c(/C=C/C(=O)O)ccc(C3(OC)OOC34C3CC5CC(C3)CC4C5)c2Cl)cc1 (centres unmarked) [Compound IIa]
Signal to noise ratio (to sterile) [6, 18]: 2
Mean RLU (n = 3) [6, 18]: 1041 RLU
Signal to noise ratio (to sterile) [6, 19]: 9
Mean RLU (n = 3) [6, 19]: 5100 RLU
Signal to noise ratio (to sterile) [6, 20]: 72
Mean RLU (n = 3) [6, 20]: 40236 RLU
Signal to noise ratio (to sterile) [6, 21]: 275
Mean RLU (n = 3) [6, 21]: 154011 RLU
Signal to noise ratio (to sterile) [6, 22]: 693
Mean RLU (n = 3) [6, 22]: 387911 RLU
detectable inoculation density of Salmonella Enteritidis ([6]; after 6 h of incubation, signal-to-noise ratio of 2 relative to sterile controls): 10 CFU/mL
Signal to noise ratio (to sterile) [7]: 408
Mean RLU (n = 3) ([7]; 27-30 min after addition): 158262 RLU
Signal to noise ratio (to sterile) [8]: 12
Mean RLU (n = 3) ([8]; 27-30 min after addition): 6480 RLU
Signal to noise ratio (to sterile) [9]: 6
Mean RLU (n = 3) ([9]; 27-30 min after addition): 3504 RLU
limit of detection for Salmonella enterica, lower than with MUCAP [10]: 625 fold
Signal to noise ratio (to sterile) [11]: 283
Mean RLU (n = 3) ([11]; 27-30 min after addition): 228202 RLU
relation of PI-PLC concentration and maximal RLU ([5]; 10 μM, 20 min measurement period): positive correlation over two orders of magnitude
relation of pig liver esterase concentration and maximal RLU (pig liver esterase): positive linear correlation over two orders of magnitude

COC1(c2ccc(/C=C/C(=O)O)c(B3OC(C)(C)C(C)(C)O3)c2)OOC12C1CC3CC(C1)CC2C3 (centres unmarked) [VIa]
rate of increase of luminescence (glucose): positive correlation with the glucose concentration

Cc1onc(-c2ccccc2)c1C(=O)N[C@@H]1C(=O)N2[C@@H]1SC(C)(C)[C@@H]2C(=O)O [oxacillin]
growth by time course of luminescence intensity [12]: showed an increase in luminescence only in the antibiotic-free culture
growth by time course of luminescence intensity [13]: multiplied both in the presence and the absence of oxacillin
